Results taken from patent publication US6506785B2, “Treating or preventing the early stages of degeneration of articular cartilage or subchondral bone in mammals using carprofen and derivatives” (Pfizer, Inc., priority 1998, dated 2003).

Assays:
[1] = Clearance rates of carprofen-genus enantiomers; conditions: in vivo
Text: The above-recited ranges of dosage amounts, which are also recited elsewhere herein, are for racemic mixtures of compounds of Formula (I) having a chiral carbon, or for single compounds of Formula (I) where no chiral carbon atom is present. As will be appreciated by the person of ordinary skill in this art, i.e., a practicing veterinarian or a person with an advanced degree and experience in animal health issues, where other than a racemic mixture of compounds of Formula (I) is involved, the chondroprotective therapeutically effective amount will vary. For example, if 85% of the mixture is (S)-enantiomer, that will ordinarily tend to reduce the necessary dosage. […] However, the degree of difference between the activities of the two enantiomers must also take into account other differences, especially differences in pharmacokinetics between the two enantiomers, in determining the proper dosage. […] This, in turn, will have a calculable impact on the amount of active compound to be administered. Ordinarily, such determinations will be made on a case-by-case basis by the artisan, but these are well within the ordinary skill of the art, as is instituting the methods whereby data necessary for the supporting calculations may be obtained.

[2] = in vivo, po
Protocol: Accordingly, a useful controlled release dosage form of carprofen in accordance with the present invention is one which maintains a carprofen plasma level greater than 2 μg/mL for most of the day after a single oral dose at 2 mg/lb.
Immediate release carprofen dosage forms containing doses of 1.8, 1.6, and 1.4 mg/lb maintain a plasma carprofen concentration above 10 μg/mL for 9.5 hrs, 8.5 hrs, and 7.5 hrs, respectively. Preferred 1.8 mg/lb oral controlled release carprofen dosage forms maintain a plasma carprofen concentration above 10 μg/mL for greater than 9.5 hrs. Likewise, the threshold durations for 1.6 mg/lb and 1.4 mg/lb doses are 8.5 hrs and 7.5 hrs, respectively. The performance characteristics for preferred oral controlled release carprofen dosage forms at doses higher than 2 mg/lb or less than 1.4 mg/lb can be similarly calculated, assuming linear pharmacokinetics. More preferred oral controlled release carprofen dosage forms are those which maintain a plasma carprofen concentration greater than 10 μg/mL for a period of time greater than or equal to that observed when an immediate release carprofen dosage form is dosed at any higher dose. […]

[3] = test system: cultured osteoarthritic mammal chondrocytes / cartilage explants; conditions: cited from earlier work
articular cartilage = conditions: cited from earlier work
[4] = test system: atrophied mammal articular cartilage; conditions: in vivo; cited from earlier work
[5] = test system: cartilage homeostasis in osteoarthritic joints; conditions: compared with control joints; cited from earlier work

C[C@H](C(=O)O)c1ccc2c(c1)[nH]c1ccc(Cl)cc12 (single isomer, unassigned) [(+)(S) enantiomer]
clearance rates, (+)(S) versus (−)(R) enantiomer [1]: significant difference in clearance rates

C[C@@H](C(=O)O)c1ccc2c(c1)[nH]c1ccc(Cl)cc12 (single isomer, unassigned) [(−)(R) enantiomer]
clearance rates, (+)(S) versus (−)(R) enantiomer [1]: significant difference in clearance rates

CC(C(=O)O)c1ccc2c(c1)[nH]c1ccc(Cl)cc12 (stereo not drawn) [carprofen, 6-chloro-α-methyl-9H-carbazole-2-acetic acid]
time plasma carprofen levels are maintained above approximately 10 μg/mL [2]: 10.5 h
cartilage GAG synthesis ([3]; carprofen concentrations of 1 and 10): selectively stimulating new cartilage GAG synthesis
cartilage proteoglycan breakdown ([3]; carprofen concentrations of 1 and 10 μL/ml): without any direct effect on cartilage proteoglycan breakdown

Pentosan polysulfate [PPS]
articular cartilage damage (articular cartilage; gross and histologic evaluation): significantly decrease articular cartilage damage
articular cartilage proteoglycan content (articular cartilage; in vivo): maintenance of normal articular cartilage proteoglycan content

hyaluronic acid [HA]
effect on atrophied articular cartilage [4]: chondrostabilizing effect

polysulfated glycosaminoglycan [PSGAG]
microscopic structural alteration [5]: decreased microscopic structural alteration
proteinase activity [5]: decreased proteinase activity
proteoglycan in cartilage [5]: retention of proteoglycan in cartilage
